Results from patent publication US20240216354A1, “IMMUNOMODULATORY IMIDE DRUGS AS ZETA-CHAIN-ASSOCIATED PROTEIN KINASE 70 (ZAP70) AGONISTS AND USES THEREOF” (Dana-Farber Cancer Institute, Inc., priority 2019, published 2024).

Assays:
NK-92 cells = assay: NK-92 cell growth by MTT assay; assay type: cell-based; conditions: Pom 0.03-3 μM, 72 h
Procedure: (A) NK-92 cells were cultured with Pom (0.5 and 1 μM) for 24 h. Whole cell lysates were subjected to immunoblotting using indicated Abs. (B) NK-92 cells were cultured with Pom (0.5 and 1 μM) for 48 h. The cells were subsequently incubated with calcein-AM-stained U266 cells for 4 h at the indicated effector/target (E/T) ratios. Percent specific lysis was calculated as described previously. (C) NK-92 cells were cultured with Pom (0.03-3 μM) for 72 h. Cell growth was assessed by MTT assay. (D) NK-92 cells were transfected with scrambled (Sc) or Zap-70 siRNA (Zap70si). After 72 h incubation, cell viability was measured by trypan-blue dye exclusion. For B, C, and D, data are representative of at least two independent experiments, and values are expressed in mean±SD.

U266 cells = assay: Primary NK cell cytolytic activity against calcein AM-labeled U266; assay type: cell-based, human; conditions: primary NK cells #1, #2, pomalidomide 0.25-1 μM 24 h, E/T 5/1 and 10/1
Procedure: KHYG-1 cells were cultured with pomalidomide (0.25-1 μM) for 24 h. (A) Whole cell lysates were subjected to immunoblotting using indicated Abs. (B) KHYG-1 cells were incubated with calcein-AM-stained U266 cells for 4 h at the indicated effector/target (E/T) ratios. Percent specific lysis was calculated as described previously. (C) KHYG-1 cells were transfected with Scsi or Zap-70si, and then cultured with pomalidomide (0.25 μM) for 72 h in the absence of IL-2. Viable cell number was determined, and cells were then incubated with calcein AM-labeled U266 target cells for 4 h at indicated effector/target (E/T) ratios. Percent specific lysis was calculated as described previously. (D) After transfection with Scsi or Zap-70si, cells were cultured with lenalidomide or pomalidomide for 72 h. Cell growth was assessed by MTT assay. (E) KHYG-1 cells were transfected with scrambled (Scsi) or CRBNsi. The transfectants were then cultured with pomalidomide (0.5 μM) for 24 h, and whole cell lysates were subjected to immunoblotting using indicated Abs. The arrow indicates CRBN expression. (F) Primary NK cells (#1, #2, #3, #4) were isolated from healthy volunteer's PBMCs, as described in Materials and Methods. NK cells were cultured with pomalidomide (0.5 μM) for 24 h, and whole cell lysates were subjected to immunoblotting using indicated Abs. […] Percent specific lysis was calculated as previously described.

granzyme-B (GZM-B) = assay: GZM-B expression in KHYG-1 cells (immunoblotting, real-time qPCR); assay type: cell-based; conditions: pomalidomide 0.25-1 μM, 24 h
Procedure: (A) KHYG1 cells were cultured with pomalidomide (0.25-1 μM) for 24 h. (B) Isolated primary NK cells from healthy volunteers (#1, #2) were cultured with pomalidomide (0.3-1 μM) for 24 h. (C) KHYG-1 cells were transfected with Scsi or Zap-70si. After 48 h, cells were cultured for 24 h in the absence or presence (0.5 μM) of pomalidomide. Whole cell lysates and RNAs were subjected to immunoblotting using indicated Abs.
(A) KHYG-1 cells were transfected with Scsi or CRBNsi. After 48 h, cells were cultured in the absence or presence of pomalidomide (0.5 μM) for 24 h, and cell lysates immunoblotted with indicated Abs. (B) KHYG-1 cells were transfected with Scsi or Zap-70si, and then cultured for 72 h with pomalidomide (0.25 μM), in the absence of IL-2. Cells were counted and incubated with calcein AM-labeled U266 for 4 h at indicated effector/target (E/T) ratios.
(A) KHYG-1 cells were transfected with CRBN, IKZF1, or IKZF3 siRNA. The transfectants were then cultured for 24 h with pomalidomide (0.5 μM). The arrow indicates CRBN. (B) KHYG-1 cells were cultured with pomalidomide for 24 h (0.5 μM), in the presence or absence of bortezomib (BTZ; 2.5 and 5 nM). (C, D) KHYG-1 cells were cultured for 24 h with lenalidomide, pomalidomide, or CC-220 (i.e., iberdomide) (0.01-1 μM). Whole cell lysates and RNAs were subjected to immunoblotting using indicated Abs (C) and real-time q-PCR (D), respectively.

## Nc1cccc2c1C(=O)N(C1CCC(=O)NC1=O)C2=O (stereo not drawn) [pomalidomide]
NK-92 cells
  cell growth (MTT): neither Pom nor Zap-70 KD altered growth in NK-92 cells
U266 cells
  NK cytolytic activity against U266 cells: significantly enhanced their NK cytolytic activity against U266 cells
granzyme-B (GZM-B)
  GZM-B expression: upregulated GZM-B expression
